Assay results reported in US20220356163A1, “SMALL MOLECULE INHIBITORS OF Id PROTEINS” (MEMORIAL SLOAN KETTERING CANCER CENTER, priority 2019, published 2022).

Tests used:
[1] = target: E47 (Homo sapiens, UniProt P15923); test: Circular dichroism (CD) of E47; type: binding; conditions: 0, 10, 20 and 50 μM
Description: Circular dichroism. Far UV Circular dichroism (CD) measurements were done on a Jasco J-1500 spectropolarimeter at room temperature using a 0.1 cm cell and a 0.1 mg/mL protein solution in the absence of presence of AGX51, AGX51E1, AGX51E2 or AGX-A. Due to the presence of DMSO in the samples, the lowest wavelength to be scanned is limited.

[2] = system: ID1, ID2, ID3 and ID4; test: Western blot for ID1-ID4 in HCT116 cells; type: cell-based; conditions: 40 μM, 0-48 hours
Description: (§1) Immunoblotting. For immunoblotting, cells were collected by trypsinization, washed with PBS and lysed in homogenization buffer (0.3 M sucrose, 10 mM Tris (pH 8.0), 400 mM sodium chloride, 3 mM magnesium chloride, 0.5% NP40/IGEPAL, 100 μg/mL Aprotinin+Protease inhibitor cocktail (Roche #11 836 153 001). Proteins were separated by SDS-PAGE, transferred to a membrane (LI-COR), probed with primary antibodies overnight at 4° C., and probed with secondary antibodies (LI-COR) for 1-2 hours at room temperature. Proteins were visualized using the LI-COR Odyssey Infrared Imaging detection system. The following primary antibodies were used Id1, Id2, Id3, Id4 (195-14, 9-2-8, 17-3, 82-12, respectively, all from Biocheck), Cyclin D1 (2978, Cell Signaling), Actin (A2066, Sigma), Tubulin (T4026, Sigma). Western blot quantification was carried out using channel 700 and channel 800 intensity data from Odyssey application software version 3.0.30 (LI-COR), subtracting blank values and normalizing to Tubulin.
The activity of AGX51 was tested on primary human umbilical vein endothelial cells (HUVECs) and the HCT116 colorectal cancer cell line, two cell types with different ID1-4 expression profiles. […] The effects of AGX51 on ID3 loss in HUVECs was diminished in the 20-40 μM range compared with ID1, consistent with the weaker perturbation observed in the CD spectra.

[3] = system: HUVEC; test: HUVEC growth, cell cycle and Cyclin D1; type: cell-based, human
Description: as §1
Cell viability assays. Cell lines were seeded in a 96 well plate (5000 cells per well). After overnight incubation, cells were treated with AGX51 and incubated for 24 hours then MTT reagent (5 mg/mL) was added per well and the cells were incubated for four hours. Following incubation, media was aspirated and 200 μL DMSO was added per well. Absorbance was then measured at 570 nm using a plate reader (Synergy 2, BioTek). Cell growth profiles were determined by seeding 38,000 cells in a 24-well plate, in triplicate for each time point, and counting the cells on days 1, 3 and 5 after seeding, using trypan blue exclusion of dead cells.
Cell cycle analysis. […] For cell cycle analysis cells were centrifuged 1000 rpm for 5 minutes, washed with 1×PBS and then resuspended in 0.5 mL PI/RNase staining buffer (550825, BD Biosciences), incubated for 15 minutes at room temperature and analyzed by flow cytometry (LSR II).

[4] = system: MDA-MB-231; test: MTT assay, MDA-MB-231; type: cell-based; parameters: scale not given here; conditions: MDA-MB-231, TNBC cell line, 24 hours
Excerpt: (§2) The 4T1 murine mammary tumor cell line and nine breast cancer cell lines representing the major breast cancer subtypes (ER+, HER2+, and TNBC) including MDA-MB-157, MDA-MB-436, MDA-MB-231, MDA-MB-453, MDA-MB-361, BT-474, SK-BR-3, MCF-7 and T47-D will be grown in RPMI or DMEM (Dulbecco's Modified Eagle Medium) media supplemented with 10% FBS (fetal bovine serum), 1% penicillin-streptomycin and 1% L-Glutamine. Patient derived xenograft cell lines BR7, BR11, and IBT will be established directly from breast cancer bone metastases specimens surgically resected from patients with informed consent. BR7 and BR11 specimens will be obtained from ER positive (HER2 negative and PR negative) metastatic breast cancer patients, while the IBT specimen will be obtained from a metastatic, triple negative breast cancer patient. Fresh tumor tissues will be quickly washed with ice cold PBS and minced into about 1-3 mm pieces in MEM medium (without FBS) using sterile razor blades. […] The cells will be treated with either 100 μM DMSO, AGX51, or a compound of the present technology such as AGX-A. The cell morphology and growth will be monitored daily for 1 week by microscopy for changes in morphology or cell death. […] Absorbance will then measured at 570 nm using a plate reader (Synergy 2, BioTek). […]

[5] = system: BT-474; test: MTT assay, BT-474; type: cell-based; parameters: scale not given here; conditions: BT-474, HER-2 +ve cell line, 24 hours
Excerpt: as §2

[6] = system: MCF-7; test: MTT assay, MCF-7; type: cell-based; conditions: Homo sapiens, MCF7, 24 h, MCF-7, ER +ve cell line, read-out: IC50 value after 24 hours of treatment
Excerpt: as §2

[7] = system: PDX-BR7; test: MTT assay, PDX-BR7; type: cell-based; conditions: 24 h, PDX-BR7, PDX cell line, read-out: IC50 value after 24 hours of treatment
Excerpt: as §2

Chain of E47 (P15923 1-651 isoform P15923-2): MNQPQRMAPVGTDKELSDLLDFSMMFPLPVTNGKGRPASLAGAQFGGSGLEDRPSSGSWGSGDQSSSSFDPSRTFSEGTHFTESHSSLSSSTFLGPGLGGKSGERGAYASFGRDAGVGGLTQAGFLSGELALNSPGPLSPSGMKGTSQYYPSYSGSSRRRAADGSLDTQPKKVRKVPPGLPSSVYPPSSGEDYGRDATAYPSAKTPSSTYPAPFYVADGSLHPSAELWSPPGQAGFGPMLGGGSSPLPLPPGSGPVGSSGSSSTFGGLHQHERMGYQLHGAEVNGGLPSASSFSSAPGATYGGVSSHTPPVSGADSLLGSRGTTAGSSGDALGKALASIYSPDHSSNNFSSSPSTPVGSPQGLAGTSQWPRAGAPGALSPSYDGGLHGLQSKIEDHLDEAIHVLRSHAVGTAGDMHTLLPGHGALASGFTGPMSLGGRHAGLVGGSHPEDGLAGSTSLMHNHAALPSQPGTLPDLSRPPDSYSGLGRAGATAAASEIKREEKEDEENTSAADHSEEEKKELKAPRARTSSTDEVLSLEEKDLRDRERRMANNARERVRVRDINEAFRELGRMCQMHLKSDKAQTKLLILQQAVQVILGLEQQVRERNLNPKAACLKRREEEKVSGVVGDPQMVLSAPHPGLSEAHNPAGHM

Compound: CCC(=O)N(CCC(c1ccc2c(c1)OCO2)c1ccccc1OC)Cc1ccccc1 (racemic) [AGX51, N-(3-(benzo[d][1,3]dioxol-5-yl)-3-(2-methoxyphenyl)propyl)-N-benzylpropionamide]
- interaction with E47 (CD) [1]: no evidence of an interaction
- ID protein levels [2]: reduced levels of ID1, 1D2, ID3 and ID4
- Cyclin D1 levels ([3]; 0-40 μM, 24 hours): reduction in Cyclin D1 levels
- cell viability ([3]; 20 μM): reduced cell viability
- cell cycle ([3]; 20 μM, 24 hours): G0/G1 growth arrest
- percentage at 60 μM (IC50 NA) [4]: NA (60 μM = 70%)
- percentage at 60 μM (IC50 NA) [5]: NA (60 μM = 53%)
- IC50 [6]: 60 µM
- IC50 [7]: 10.9 µM
